The subject of data set [1] is large crabgrass (Digitaria sanguinalis, DIGSA). The experiment in a line: Postemergence herbicidal activity, greenhouse trial (visual injury 0-100%). The class given is in vivo.
The subject of data set [2] is kochia (Kochia scoparia, KCHSC). The description is as above. The class given is in vivo. The note with it: Bassia scoparia, post-emergence, read-out: % visual injury Obs. Summed up:
(§1)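 Herbicide mixtures (an EC-formulated compound plus a partner herbicide) are sprayed at 187 L/ha on greenhouse plants at the second or third true leaf stage, with rates in g ae/ha for (a) and g ai/ha for (b).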

Data set [3] has as its system wild buckwheat (Polygonum convolvulus, POLCO). The data set is described as above. Format: in vivo. To be noted: Fallopia convolvulus, post-emergence, read-out: % visual injury Obs. Summed up: as §1
In data set [4] the test system is thistle (Cirsium arvense, CIRAR). The description is as above. The class given is in vivo. Summed up: as §1
Data set [5] relates to wild pansy (Viola tricolor, VIOTR). Described as above. Format: in vivo. The note with it: Viola tricolor, post-emergence, read-out: % visual injury Obs. The method in brief:
as §1

Data set [6] deals with poinsettia (Euphorbia heterophylla, EPHHL). The data set is described as above. The note with it: for % visual injury Obs: EPHHL. Format: in vivo. Summed up: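 Greenhouse-grown plants at the second to third true leaf stage were sprayed with two-way mixtures in 1.5% v/v Agri-dex crop oil concentrate at 187 L/ha; rates in g ae/ha for component (a) and g ai/ha for component (b). Injury scored visually 0–100% versus solvent-blank controls after 20–22 d, with expected mixture effects from Colby's equation.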

Data set [7] deals with winter wheat (Triticum aestivum, TRZAW). The experiment in a line: Postemergence crop injury (phytotoxicity), greenhouse trial (visual injury 0-100%). To be noted: 7.5 g ai/ha. The protocol: Seeds of the desired test plant species were planted in Sun Gro MetroMix® 306 planting mixture, which typically has a pH of 6.0 to 6.8 and an organic matter content of about 30 percent, in plastic pots with a surface area of 103.2 square centimeters (cm^2). […] The plants were grown for 7-36 days (d) in a greenhouse with an approximate 14-hour (h) photoperiod which was maintained at about 23° C. during the day and 22° C. during the night. Nutrients and water were added on a regular basis and supplemental lighting was provided with overhead metal halide 1000-Watt lamps as necessary. The plants were employed for testing when they reached the second or third true leaf stage.
Weighed amounts of technical material were dissolved in a volume of 97:3 volume per volume (v/v) acetone/dimethyl sulfoxide (DMSO) to stock solutions. […] The concentrated stock solutions were diluted with an aqueous mixture of 1.5% v/v of Agri-dex crop oil concentrate to provide the appropriate application rates. Compound requirements are based upon a 12 milliliter (mL) application volume at a rate of 187 liters per hectare (L/ha). Spray solutions of the experimental compound mixtures were prepared by adding the stock solutions to the appropriate amount of dilution solution to form a 12 mL spray solution in two-way combinations. Formulated compounds were applied to the plant material with an overhead Mandel track sprayer equipped with 8002E nozzles calibrated to deliver 187 L/ha over an application area of 0.503 square meters (m^2) at a spray height of 18 inches (43 centimeters (cm)) above average plant canopy. Control plants were sprayed in the same manner with the solvent blank. Application rates for component (a) are in g ae/ha, and application rates for component (b) are in g ai/ha.
The treated plants and control plants were placed in a greenhouse as described above and watered by sub-irrigation to prevent wash-off of the test compounds. After 20-22 d, the condition of the test plants as compared with that of the control plants was determined visually and scored on a scale of 0 to 100 percent where 0 corresponds to no injury and 100 corresponds to complete kill. The condition of the test plants was compared with that of the control plants as determined visually and scored on a scale of 0 to 100 percent, where 0 corresponds to no injury and 100 corresponds to complete kill. Colby's equation was used to determine the herbicidal effects expected from the mixtures.
Compound 2 was combined with florasulam and applied to winter wheat (TRZAW) and the phytotoxicity of the herbicidal composition was measured. In addition, the efficacy of the herbicidal composition on poinsettia (Euphorbia heterophylla, EPHHL) and […] (Cyperus esculentus, CYPES) was evaluated.
Weighed amounts of technical or formulated material (emulsifiable concentrate (EC) or soluble concentrate (SL)) were dissolved in a volume of 97:3 volume per volume (v/v) acetone/dimethyl sulfoxide (DMSO) to stock solutions. […] The concentrated stock solutions were diluted with an aqueous mixture of 1.5% v/v of Agri-dex crop oil concentrate to provide the appropriate application rates. Compound requirements are based upon a 12 milliliter (mL) application volume at a rate of 187 liters per hectare (L/ha). Spray solutions of the experimental compound mixtures were prepared by adding the stock solutions to the appropriate amount of dilution solution to form a 12 mL spray solution in two-way combinations. […]

Values joined by “and” are separate entries in the source; they are usually repeats but may differ in a detail not shown here. Equal entries are not always repeated. Where two headings read alike, the source gives them in different places.

Consider `Nc1c(F)c(-c2ccc3cc[nH]c3c2F)nc(C(=O)O)c1Cl` [Compound 1], for which the “% visual injury Obs” value is 5% and 0% in data set [1] (5 g ae/ha); 10% in data set [1] (10 g ae/ha); 10% in data set [4] (CIRAR, Compound 1 5 g ae/ha); 97% in data set [6] (Compound 1 5 g ae/ha); 97% in data set [6] (Compound 1 10 g ae/ha). Further, the pest or weed control at 5 g/ha in data set [2] (5 g ae/ha) amounted to 65%; in data set [2] (KCHSC, Compound 1 5 g ae/ha), 60%; in data set [3] (5 g ae/ha) it was 70%; in data set [3] (POLCO, Compound 1 5 g ae/ha), 65%; in data set [4] (Cirsium arvense, post-emergence, 5 g ae/ha, read-out: % visual injury Obs), 10%; in data set [6] (Euphorbia heterophylla, post-emergence, 5 g ae/ha, read-out: % visual injury Obs), 97%. In addition, the pest or weed control at 10 g/ha in data set [2] (10 g ae/ha) was determined as 60%; in data set [2] (KCHSC, Compound 1 10 g ae/ha), 60%; in data set [5] (10 g ae/ha), 10%; in data set [5] (VIOTR, Compound 1 10 g ae/ha) it was 10%; in data set [6] (Euphorbia heterophylla, post-emergence, 10 g ae/ha, read-out: % visual injury Obs) it was 97%.
Regarding `CCCOc1nn(C(=O)NS(=O)(=O)c2ccccc2C(=O)OC)c(=O)n1C` [Propoxycarbazone, propoxycarbazone], the pest or weed control at […] turned out to be 30% in data set [2] (7.5 g ai/ha); 10% in data set [3] (7.5 g ai/ha); 75% in data set [4] (Cirsium arvense, post-emergence, 7.5 g ai/ha, read-out: % visual injury Obs); 20% in data set [5] (7.5 g ai/ha). Besides, the “% visual injury Obs” value in data set [7] came out at 10%.
